Measured values from paper PMC10002375, “Synthesis of 3-(2-Alkylthio-4-chloro-5-methylbenzenesulfonyl)-2-(1-phenyl-3-arylprop-2-enylideneamino)guanidine Derivatives with Pro-Apoptotic Activity against Cancer Cells” (International Journal of Molecular Sciences, 2023).

Experiments:
Assay type in all cases: cell-based, human
MCF-7 cells [1] = test: Cell cycle distribution by flow cytometry, MCF-7
Experimental: (§1) The cell cycle distribution was measured by flow cytometry analysis after incubation of MCF-7, HeLa, and HCT-116 with compounds 24 and 31 for 72 h.

MCF-7 cells [2] = test: Mitochondrial membrane potential (JC-1, flow cytometry), MCF-7; details: MCF-7, 72 h, 24 at 10 or 25 μM, 31 at 25 μM
Source text: (§2) A decrease in mitochondrial potential is one of the earliest hallmarks of apoptosis. A common method for indication of cells with high and low Δψm is flow cytometry combined with specific fluorescent probes, such as JC-1 (5,5′,6,6′-tetrachloro-1,1′,3,3′-tetraethylbenzimidazolylcarbocyanine iodide). JC-1 accumulates in mitochondria and forms complexes (J aggregates) with red fluorescence in healthy cells with a normal ΔΨm, whereas in apoptotic cells with a low ΔΨm exists as a monomer with green fluorescence.
(§3) Analyzed cells were seeded into wells of a 24-well plate at a density of 5 × 10^4 cells in 1000 µL, incubated overnight, and then the medium was exchanged for dilutions of reagents 24 and 31. Before the end of 72 h of incubation, MitoProbe JC-1 (25 µM) was added into each plate well. Carbonyl cyanide m-chlorophenylhydrazone CCCP (200 nM) as the mitochondrial oxidative phosphorylation uncoupler was added into the positive control 15 min before JC-1 was added. After 30 min of JC-1 staining, cells were washed with PBS and then trypsinized (Corning® 25-053CI). Cells suspended in PBS were analyzed by flow cytometry at λ excitation (ex) = 488 nm and λ emission (em) = 525/570 nm (LSR II BD Biosciences, San Jose, CA, USA).

MCF-7 cells [3] = test: Phosphatidylserine translocation (Annexin V-FITC/PI), MCF-7; details: MCF-7, 72 h; 24 at 10 or 25 μM, 31 at 25 μM
Source text: (§4) One of the early indicators of apoptosis is the exposure of phosphatidylserine residues on the cell’s surface. Annexin V has a high affinity to phosphatidylserine and, as a conjugate to fluorescein isothiocyante (FITC), is widely used for detection of early apoptotic cells using flow cytometry. Detection of late-apoptotic or necrotic cells is achieved by using propidium iodide (PI) stain. Based on the obtained fluorescence, four subpopulations were found: PI-low/FITC-low (live cells), PI-high/FITC-low (necrotic cells), PI-low/FITC-high (early apoptotic cells), and PI-high/FITC-high (late apoptotic cells).
(§5) Analysis was performed using FITC-conjugated annexin-V (Annexin V-FITC Apoptosis Kit I, BD Biosciences, San Jose, CA, USA) according to the manufacturer’s instructions (BD Biosciences) as described previously. HeLa, MCF-7, and HCT-116, after seeding to 24-well plates (5 × 10^4/per well) and 24 h incubation, were treated for 72 h with 24 or 31 (10/25 µM or 25 µM concentration respectively). Following treatment, cells were washed in PBS, centrifuged, and then resuspended in a binding buffer. Afterward, the cells were incubated for 15 min at 37 °C with FITC-conjugated annexin-V and propidium iodide. The samples were then analyzed using a LSR II flow cytometer (BD Biosciences) using 530 ± 25 nm (Annexin V-FITC) and 575 ± 26 nm (PI).
(§6) The subpopulations were identified according to their fluorescence: PI-low/FITC-low (live cells), PI-high/FITC-low (necrotic cells), PI-low/FITC-high (early apoptotic cells), and PI-high/FITC-high (late apoptotic cells).

HeLa cells [4] = test: Cell cycle distribution by flow cytometry, HeLa; details: 72 h
Experimental: as §1

HCT-116 cells [5] = test: Cell cycle distribution by flow cytometry, HCT-116
Experimental: as §1

HCT-116 (colon cancer) = test: MTT cell viability assay, HCT-116; details: Homo sapiens, HCT-116; MTT, 72 h
Experimental: (§7) All chemicals, if not stated otherwise, were obtained from Sigma-Aldrich (St. Louis, MO, USA). The MCF-7 cell line was purchased from Cell Lines Services (Eppelheim, Germany), the HeLa and HCT-116 cell lines were obtained from the Department of Microbiology, Tumor and Cell Biology, Karolinska Institute (Stockholm, Sweden). Cells were cultured in Dulbecco’s modified Eagle’s medium (DMEM) supplemented with 10% fetal bovine serum, 2 mM glutamine, 100 units/mL penicillin, and 100 μg/mL streptomycin. Cultures were maintained in a humidified atmosphere with 5% CO2 at 37 °C in an incubator (HeraCell, Heraeus, Langenselbold, Germany).
(§8) Cell viability was determined using the MTT (3-(4,5-dimethylthiazol-2-yl)-2,5-diphenyl-tetrazoliumbromide) assay. Stock solutions of the studied compounds were prepared in 100% DMSO. […] Cells were seeded in 96-well plates at a density of 5 × 10^3 cells/well and treated for 72 h with the examined compounds in the concentration range 1–100 μM (1, 10, 25, 50, and 100 μM). Following treatment, MTT (0.5 mg/mL) was added to the medium and cells were further incubated for 2 h at 37 °C. Cells were lysed with DMSO and the absorbance of the formazan solution was measured at 550 nm with a plate reader (1420 multilabel counter, Victor, Jügesheim, Germany). […] The experiment was performed in triplicate. Values are expressed as the mean ± SD of at least three independent experiments.

HeLa (cervical cancer) = test: MTT cell viability assay, HeLa; details: Homo sapiens, HeLa; MTT, 72 h
Experimental: as §7, §8

MCF-7 (breast cancer) = test: MTT cell viability assay, MCF-7; details: Homo sapiens, MCF7; MTT, 72 h
Source text: The cytotoxic activity of the compounds 8–33 has been evaluated in MTT assays against three human cancer cell lines MCF-7 (breast cancer), HeLa (cervical cancer), and HCT-116 (colon cancer) and it was expressed as IC50 values in μM (Table 1).
as §7, §8

HCT-116 cells [6] = test: Mitochondrial membrane potential (JC-1, flow cytometry), HCT-116; details: HCT-116, 72 h, 24 at 10 or 25 μM, 31 at 25 μM
Source text: as §2, §3

HCT-116 cells [7] = test: Phosphatidylserine translocation (Annexin V-FITC/PI), HCT-116; details: HCT-116, 72 h; 24 at 10 or 25 μM, 31 at 25 μM
Source text: as §4, §5, §6

HeLa cells [8] = test: Mitochondrial membrane potential (JC-1, flow cytometry), HeLa; details: 72 h, 24 at 10 or 25 μM, 31 at 25 μM
Source text: as §2, §3

HeLa cells [9] = test: Phosphatidylserine translocation (Annexin V-FITC/PI), HeLa; details: 72 h, 24 at 10 or 25 μM, 31 at 25 μM
Source text: as §4, §5, §6

IC50 (HCT-116 (colon cancer)): 365 ± 11 µM | IC50 (HeLa (cervical cancer)): 110 ± 5 µM | IC50 (MCF-7 (breast cancer)): 230 ± 13 µM
Structure (SMILES): COc1ccc(C=CC(=NN=C(N)NS(=O)(=O)c2cc(C)c(Cl)cc2SCc2ccc(Cl)cc2)c2ccccc2)cc1 [Compound 31]
cells in sub-G1 phase (MCF-7 cells [1]; MCF-7, 25 μM, 72 h): 2.78% | effect on cell cycle distribution (MCF-7 cells [1]; MCF-7, 72 h, 24 at 10 and 25 μM, 31 at 25 μM): does not substantially affect the cell cycle progression | change of mitochondrial membrane potential (ΔΨm) (MCF-7 cells [2]): did not result in a loss of ΔΨm | population of apoptotic cells (Annexin V-FITC/PI) (MCF-7 cells [3]): did not cause statistically significant differences compared to the control | cells in sub-G1 phase (HeLa cells [4]; 25 μM, control 5.08%): 5.45% | effect on cell cycle distribution (HeLa cells [4]; 24 at 10 and 25 μM, 31 at 25 μM): does not substantially affect the cell cycle progression | cells in sub-G1 phase (HCT-116 cells [5]; HCT-116, 25 μM, 72 h, control 1.15%): 1.84% | effect on cell cycle distribution (HCT-116 cells [5]; HCT-116, 72 h, 24 at 10 and 25 μM, 31 at 25 μM): does not substantially affect the cell cycle progression | change of mitochondrial membrane potential (ΔΨm) (HCT-116 cells [6]): did not result in a loss of ΔΨm | population of apoptotic cells (Annexin V-FITC/PI) (HCT-116 cells [7]): did not cause statistically significant differences compared to the control | change of mitochondrial membrane potential (ΔΨm) (HeLa cells [8]): did not result in a loss of ΔΨm | population of apoptotic cells (Annexin V-FITC/PI) (HeLa cells [9]): did not cause statistically significant differences compared to the control
